Measurements: publication PMC10939098 (Emerging Microbes & Infections, 2024)
Numbering of substitutions follows the chain as printed. ≈ marks a conversion by molar mass, not a printed value.

T1: PER-1 (Pseudomonas aeruginosa, UniProt P37321)
T1 sequence (P37321 27-308): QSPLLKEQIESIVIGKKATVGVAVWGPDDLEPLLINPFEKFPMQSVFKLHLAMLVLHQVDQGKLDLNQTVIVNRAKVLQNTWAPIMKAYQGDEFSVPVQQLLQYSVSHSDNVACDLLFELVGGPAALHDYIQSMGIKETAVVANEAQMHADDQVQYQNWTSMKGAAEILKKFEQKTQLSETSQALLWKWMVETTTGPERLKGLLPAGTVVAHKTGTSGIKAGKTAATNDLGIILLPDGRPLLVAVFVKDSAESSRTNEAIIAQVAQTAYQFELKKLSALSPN

T2: PER-4 (Pseudomonas aeruginosa, UniProt P37321, S135T)
T2 sequence (P37321 27-308 S135T): T1 sequence (P37321 27-308) with S109T

B1: PER-1 (Pseudomonas aeruginosa) (protein)
chain: T1 sequence (P37321 27-308)

Key:
PER-1 [1] = target: T1, PER-1; test: Direct competition inhibition assay with nitrocefin, PER-1; type: biochemical
PER-4 [2] = target: T2, PER-4; test: Direct competition inhibition assay with nitrocefin, PER-4; type: biochemical; settings: for fold higher IC50 value against PER-4 than against wild-type PER-1: PER-4 vs PER-1
[3] = system: PER-producing P. aeruginosa clinical isolates; test: microbe, parasite or virus in culture; type: cell-based, Pseudomonas aeruginosa; settings: for % resistance: share of isolates resistant
[4] = system: PAO1 transconjugants carrying blaPER-1 plasmids; test: Broth microdilution MIC, transconjugants and recipient PAO1-Rrif; type: cell-based; settings: Pseudomonas aeruginosa
Recombinant PAO1 strains = test: Broth microdilution MIC, recombinant PAO1 strains carrying blaPER; type: cell-based; settings: Pseudomonas aeruginosa
PER-1 [5] = target: T1, PER-1; test: Steady-state enzyme kinetics, purified PER-1; type: biochemical
PER-4 [6] = target: T2, PER-4; test: Steady-state enzyme kinetics, purified PER-4; type: biochemical; settings: for Km / kcat: room temperature, 1×PBS pH 7.2
[7] = substrate: CC(C)(O/N=C(\C(=O)N[C@@H]1C(=O)N2C(C(=O)[O-])=C(C[n+]3ccccc3)CS[C@H]12)c1csc(N)n1)C(=O)O; test: Steady-state enzyme kinetics, purified PER-1; type: biochemical, Pseudomonas aeruginosa; settings: other: PER-1, room temperature, 1×PBS pH 7.2
[8] = substrate: O=C(Cc1cccs1)N[C@@H]1C(=O)N2C(C(=O)O)=C(/C=C/c3ccc([N+](=O)[O-])cc3[N+](=O)[O-])CS[C@H]12; test: Steady-state enzyme kinetics, purified PER-1; type: biochemical, Pseudomonas aeruginosa; settings: other: PER-1, room temperature, 1×PBS pH 7.2
[9] = PAO1, recipient strain PAO1-R^rif
[10] = PAO1, transconjugant PAO1/pPA268
[11] = PAO1, transconjugant PAO1/pPA272
[12] = PAO1, transconjugant PAO1/pPA282
[13] = PAO1, transconjugant PAO1/pPA975
[14] = PAO1, transconjugant PAO1/pPA1017
[15] = PAO1, transconjugant PAO1/pPA1018
[16] = PAO1, strain PAO1-pGK1900 (empty vector)
[17] = Pseudomonas aeruginosa, isolate PA268
[18] = Pseudomonas aeruginosa, isolate PA272
[19] = Pseudomonas aeruginosa, isolate PA282
[20] = Pseudomonas aeruginosa, isolate PA975
[21] = Pseudomonas aeruginosa, isolate PA1017
[22] = Pseudomonas aeruginosa, isolate PA1018

| Molecule | % resistance ([3]; 56 PER-producing PA strains) [%] | MIC50 ([3]; Pseudomonas aeruginosa) [µg/mL] | MIC90 ([3]; Pseudomonas aeruginosa) [µg/mL] | MIC [4, 10] [µg/mL] | MIC [4, 11] [µg/mL] | MIC [4, 12] [µg/mL] | MIC [4, 13] [µg/mL] | MIC [4, 14] [µg/mL] | MIC [4, 15] [µg/mL] | MIC (Recombinant PAO1 strains; PAO1) [µg/mL] | MIC (Recombinant PAO1 strains; [16]) [µg/mL] | MIC (Recombinant PAO1 strains; PAO1, strain PAO1-pGK1900-PER1) [µg/mL] | MIC (Recombinant PAO1 strains; PAO1, strain PAO1-pGK1900-PER4) [µg/mL] | MIC [3, 17] [µg/mL] | MIC [3, 18] [µg/mL] | MIC [3, 19] [µg/mL] | MIC [3, 20] [µg/mL] | MIC [3, 21] [µg/mL] | MIC [3, 22] [µg/mL] | further results |
| --- | --- | --- | --- | --- | --- | --- | --- | --- | --- | --- | --- | --- | --- | --- | --- | --- | --- | --- | --- | --- |
| NC(=O)[C@@H]1CC[C@@H]2CN1C(=O)N2OS(=O)(=O)O [Avibactam] | – | – | – | – | – | – | – | – | – | – | – | – | – | – | – | – | – | – | – | IC50 (PER-1 [1]): 217 nM; Ki (PER-1 [1]): 191 ± 4 nM; IC50 (PER-4 [2]): 729 µM; Ki (PER-4 [2]): 473 ± 29.2 µM; fold higher IC50 value against PER-4 than against wild-type PER-1 (PER-4 [2]): ~3359 fold |
| NCC[C@H](O)C(=O)N[C@@H]1C[C@H](N)[C@@H](O[C@H]2O[C@H](CN)[C@@H](O)[C@H](O)[C@H]2O)[C@H](O)[C@H]1O[C@H]1O[C@H](CO)[C@@H](O)[C@H](N)[C@H]1O [AMK, amikacin] | 94.64 | > 128 | > 128 | – | – | – | – | – | – | – | – | – | – | – | – | – | – | – | – | – |
| C[C@H]1[C@H](NC(=O)/C(=N\OC(C)(C)C(=O)O)c2csc(N)n2)C(=O)N1S(=O)(=O)O [AZT, aztreonam] | – | – | – | > 128 | > 128 | > 128 | > 128 | > 128 | > 128 | 4 | 8 | > 128 | > 128 | – | – | – | – | – | – | MIC [4, 9]: 2 µg/mL (≈ 4.59 µM) |
| colistin [CST] | 0.00 | – | – | – | – | – | – | – | – | – | – | – | – | – | – | – | – | – | – | MIC50 ([3]; 56 PER-producing PA strains): 2 µg/mL; MIC90 ([3]; 56 PER-producing PA strains): 2 µg/mL; MIC range ([3]; 56 PER-producing PA strains): 0.25 to 2 mg/L |
| CCN1CCN(C(=O)N[C@@H](C(=O)N[C@@H]2C(=O)N3[C@@H]2SC(C)(C)[C@@H]3C(=O)O)c2ccccc2)C(=O)C1=O [PIP, piperacillin] | 98.21 | > 128 | > 128 | > 128 | > 128 | > 128 | 128 (≈ 247 µM) | 128 (≈ 247 µM) | > 128 | 4 | – | 32 | 16 | > 128 | > 128 | > 128 | 128 (≈ 247 µM) | > 128 | > 128 | – |
| CO/N=C(\C(=O)N[C@@H]1C(=O)N2C(C(=O)[O-])=C(C[N+]3(C)CCCC3)CS[C@H]12)c1csc(N)n1 [FEP, cefepime] | – | – | – | 128 (≈ 266 µM) | 128 (≈ 266 µM) | 128 (≈ 266 µM) | 64 (≈ 133 µM) | 128 (≈ 266 µM) | 128 (≈ 266 µM) | 1 | 4 | > 128 | > 128 | – | – | – | – | – | – | MIC [4, 9]: 2 µg/mL (≈ 4.16 µM) |
| C[C@@H](O)[C@H]1C(=O)N2C(C(=O)O)=C(S[C@@H]3CN[C@H](C(=O)N(C)C)C3)[C@H](C)[C@H]12 [MEM, meropenem] | 91.07 | 16 (≈ 41.7 µM) | 64 (≈ 167 µM) | 1 (≈ 2.61 µM) | 1 (≈ 2.61 µM) | 1 (≈ 2.61 µM) | 2 (≈ 5.22 µM) | 1 (≈ 2.61 µM) | 32 (≈ 83.4 µM) | 0.5 | 1 | 1 | 1 | 16 (≈ 41.7 µM) | 32 (≈ 83.4 µM) | 32 (≈ 83.4 µM) | 16 (≈ 41.7 µM) | 16 (≈ 41.7 µM) | 32 (≈ 83.4 µM) | – |
| O=C(Cc1cccs1)N[C@@H]1C(=O)N2C(C(=O)O)=C(/C=C/c3ccc([N+](=O)[O-])cc3[N+](=O)[O-])CS[C@H]12 [Nitrocefin] | – | – | – | – | – | – | – | – | – | – | – | – | – | – | – | – | – | – | – | fold lower nitrocefin hydrolysis activity of PER-1 than PER-4 (PER-1 [5]; PER-1 vs PER-4): ~1.7 fold; Km (PER-4 [6]): 18.5 µM; kcat (PER-4 [6]): 224.03 s⁻¹ |
| C[C@]1(Cn2ccnn2)[C@H](C(=O)O)N2C(=O)C[C@H]2S1(=O)=O [Tazobactam] | – | – | – | – | – | – | – | – | – | – | – | – | – | – | – | – | – | – | – | IC50 (PER-1 [1]): 363 nM; Ki (PER-1 [1]): 320 ± 13.1 nM; IC50 (PER-4 [2]): 1090 µM; Ki (PER-4 [2]): 707 ± 97.7 µM; fold higher IC50 value against PER-4 than against wild-type PER-1 (PER-4 [2]): ~3002 fold |
| CC(C)(O/N=C(\C(=O)N[C@@H]1C(=O)N2C(C(=O)[O-])=C(C[n+]3ccccc3)CS[C@H]12)c1csc(N)n1)C(=O)O [CAZ, ceftazidime] | 100.00 | > 128 | > 128 | > 128 | > 128 | > 128 | 128 (≈ 234 µM) | > 128 | > 128 | 1 | 2 | > 128 | > 128 | > 128 | > 128 | > 128 | > 128 | > 128 | > 128 | MIC range ([3]; 56 PER-producing PA strains): >128 mg/L; % resistance ([3]; 56 PER-producing PA strains, listed as ceftazidime): 100%; Km (PER-4 [6]): 726 µM; kcat (PER-4 [6]): 607.66 s⁻¹ |
| C[C@@H](O)[C@H]1C(=O)N2C(C(=O)O)=C(SCCN=CN)C[C@H]12 [IPM, imipenem] | 92.86 | 16 (≈ 53.4 µM) | 32 (≈ 107 µM) | – | 2 (≈ 6.68 µM) | – | – | – | 32 (≈ 107 µM) | 1 | – | – | – | 16 (≈ 53.4 µM) | 16 (≈ 53.4 µM) | 16 (≈ 53.4 µM) | 16 (≈ 53.4 µM) | 32 (≈ 107 µM) | 32 (≈ 107 µM) | MIC range ([3]; 56 PER-producing PA strains): 0.5 to 64 mg/L; imipenem hydrolysis activity (PER-1 [5]; PER-1): hardly any detectable; imipenem hydrolysis activity (PER-4 [6]): hardly any detectable |
| CC(C)(O/N=C(\C(=O)N[C@@H]1C(=O)N2C(C(=O)[O-])=C(C[N+]3(CCNC(=O)c4ccc(O)c(O)c4Cl)CCCC3)CS[C@H]12)c1csc(N)n1)C(=O)O [CFDC, Cefiderocol] | – | – | – | 2 (≈ 2.66 µM) | 2 (≈ 2.66 µM) | 2 (≈ 2.66 µM) | 2 (≈ 2.66 µM) | 2 (≈ 2.66 µM) | – | 1 | 0.5 | 2 | 2 | 2 (≈ 2.66 µM) | 2 (≈ 2.66 µM) | 2 (≈ 2.66 µM) | 1 (≈ 1.33 µM) | 2 (≈ 2.66 µM) | 1 (≈ 1.33 µM) | MIC [4, 9]: 0.5 µg/mL (≈ 0.665 µM) |
| O=C(O)[C@H]1/C(=C/CO)O[C@@H]2CC(=O)N21 [Clavulanic acid] | – | – | – | – | – | – | – | – | – | – | – | – | – | – | – | – | – | – | – | IC50 (PER-1 [1]): 27 nM; Ki (PER-1 [1]): 24 ± 0.4 nM; IC50 (PER-4 [2]): 0.152 µM; Ki (PER-4 [2]): 0.099 ± 0.0006 µM; fold higher IC50 value against PER-4 than against wild-type PER-1 (PER-4 [2]): ~5.6 fold |
| C[C@H]1COc2c(N3CCN(C)CC3)c(F)cc3c(=O)c(C(=O)O)cn1c23 [LEV, levofloxacin] | 82.14 | 16 (≈ 44.3 µM) | 32 (≈ 88.6 µM) | – | – | – | – | – | – | – | – | – | – | – | – | – | – | – | – | MIC range ([3]; 56 PER-producing PA strains): 0.5 to 64 mg/L |
| B1 | – | – | – | – | – | – | – | – | – | – | – | – | – | – | – | – | – | – | – | Km [7]: 668.75 µM; kcat [7]: 537 s⁻¹; Km [8]: 72.92 µM; kcat [8]: 512 s⁻¹ |
